Assays:
[1] = Circular dichroism helicity; type: physicochemical; conditions: CD, MRE222 vs theoretical maximum; PBS (50 mM)/acetonitrile 95:5, pH 7.4, 20 °C; average of three scans
Method: Each purified peptide was dissolved in phosphate buffer (PBS; 50 mM)/acetonitrile (95:5, pH 7.4) and its circular dichroism spectrum was recorded.
Circular dichroism: CD spectra were obtained on a Chirascan CD spectrometer at 20 °C (1 mm path length, 260–190 nm, bandwidth 1.0 nm, response time 0.5 s, step resolution 1.0 nm) Each spectrum is the average of three scans. Peptides were dissolved in PBS (50 mM)/acetonitrile (95:5, pH 7.4) at 20 °C. The helicity was calculated as previously reported19b by comparing mean residue ellipticity at 222 nm (MRE222) to the theoretical maximum as calculated from the formula [Eq. (1), n=number of amino acid residues] described by Forood et al.21 (1) MRE222=-40000×(1-2.5/n)
Spectra were obtained at several concentrations ([…]).

α-chymotrypsin = test: Serum stability assay: incubation with α‐chymotrypsin; type: in vitro ADME; conditions: α-chymotrypsin (0.5 μg/mL) in PBS, α-chymotrypsin 0.5 μg mL−1 in PBS, peptide 0.3 mM from DMSO stock, RT, HPLC 220 nm vs caffeine internal standard, duplicate, read-out: peptide remaining intact after 6 h of incubation with α‐chymotrypsin
Method: Serum stability assay: Each peptide was dissolved in PBS (300 μL) from a DMSO stock to a final concentration of 0.3 mM. This PBS contained α‐chymotrypsin (0.5 μg mL^−1) and caffeine as an internal standard. Peptides were incubated at RT, and at each time point, an aliquot (30 μL) of the mixture was removed, snap frozen, thawed and centrifuged, and the supernatant was analysed by HPLC. Peptide degradation was monitored by comparing the integration of the peptide peak against the internal standard at […]. Experiments were performed in duplicate.

| SMILES | Helicity [1] [%] | remaining at 6 h, 0.3 mM (α-chymotrypsin) [%] |
| --- | --- | --- |
| CC(=O)N[C@@H](CCC(=O)O)C(=O)N[C@H](C(=O)N[C@@H](Cc1ccccc1)C(=O)N[C@@]1(C)CCCC=CCCC[C@H](OC(=O)[C@H](CCCCN)NC(=O)[C@@H](N)CCCCN)c2cn(nn2)CC[C@@H](C(=O)N[C@@H](CCC(=O)O)C(=O)N[C@@H](CC(N)=O)C(N)=O)NC(=O)[C@H](CC(C)C)NC(=O)[C@H](CC(C)C)NC(=O)[C@H](CCCNC(=N)N)NC(=O)[C@H](Cc2c[nH]c3ccccc23)NC(=O)[C@H](CC(C)C)NC(=O)[C@H](CC(=O)O)NC1=O)[C@@H](C)O [SP1‐K (B)] | 31 |  |
| CC(=O)N[C@@H](CCC(=O)O)C(=O)N[C@H](C(=O)N[C@@H](Cc1ccccc1)C(=O)N[C@@]1(C)CCCC=CCCC[C@@H](OC(=O)[C@@H](N)CCCCN)c2cn(nn2)CC[C@@H](C(=O)N[C@@H](CCC(=O)O)C(=O)N[C@@H](CC(N)=O)C(N)=O)NC(=O)[C@H](CC(C)C)NC(=O)[C@H](CC(C)C)NC(=O)[C@H](CCCNC(=N)N)NC(=O)[C@H](Cc2c[nH]c3ccccc23)NC(=O)[C@H](CC(C)C)NC(=O)[C@H](CC(=O)O)NC1=O)[C@@H](C)O [SP2 (A)] | 67 |  |
| CC(=O)N[C@@H](CCC(=O)O)C(=O)N[C@H](C(=O)N[C@@H](Cc1ccccc1)C(=O)N[C@@]1(C)CCCC=CCCC[C@H](OC(=O)[C@@H](N)CCCCN)c2cn(nn2)CC[C@@H](C(=O)N[C@@H](CCC(=O)O)C(=O)N[C@@H](CC(N)=O)C(N)=O)NC(=O)[C@H](CC(C)C)NC(=O)[C@H](CC(C)C)NC(=O)[C@H](CCCNC(=N)N)NC(=O)[C@H](Cc2c[nH]c3ccccc23)NC(=O)[C@H](CC(C)C)NC(=O)[C@H](CC(=O)O)NC1=O)[C@@H](C)O [SP1 (A)] | 53 | 82 |
| CC(=O)N[C@@H](CCC(=O)O)C(=O)N[C@H](C(=O)N[C@@H](Cc1ccccc1)C(=O)N[C@@]1(C)CCCC=CCCC[C@H](OC(=O)[C@@H](N)CCCCN)c2cn(nn2)CC[C@@H](C(=O)N[C@@H](CCC(=O)O)C(=O)N[C@@H](CC(N)=O)C(N)=O)NC(=O)[C@H](CC(C)C)NC(=O)[C@H](CC(C)C)NC(=O)[C@H](CCCNC(=N)N)NC(=O)[C@H](Cc2c[nH]c3ccccc23)NC(=O)[C@H](CC(C)C)NC(=O)[C@H](CC(=O)O)NC1=O)[C@@H](C)O [SP1 (B)] | 31 |  |
| CC(=O)N[C@@H](CCC(=O)O)C(=O)N[C@H](C(=O)N[C@@H](Cc1ccccc1)C(=O)N[C@@]1(C)CCCC=CCCC[C@@H](OC(=O)[C@@H](N)CCCCN)c2cn(nn2)CC[C@@H](C(=O)N[C@@H](CCC(=O)O)C(=O)N[C@@H](CC(N)=O)C(N)=O)NC(=O)[C@H](CC(C)C)NC(=O)[C@H](CC(C)C)NC(=O)[C@H](CCCNC(=N)N)NC(=O)[C@H](Cc2c[nH]c3ccccc23)NC(=O)[C@H](CC(C)C)NC(=O)[C@H](CC(=O)O)NC1=O)[C@@H](C)O [SP2 (B)] | 35 |  |

Further lines, results first:

| Helicity [1] [%] | remaining at 6 h, 0.3 mM (α-chymotrypsin) [%] | SMILES |
| --- | --- | --- |
| 52 | 17 | C=CCCC[C@](C)(NC(=O)[C@H](Cc1ccccc1)NC(=O)[C@@H](NC(=O)[C@H](CCC(=O)O)NC(C)=O)[C@@H](C)O)C(=O)N[C@@H](CC(=O)O)C(=O)N[C@@H](CC(C)C)C(=O)N[C@@H](Cc1c[nH]c2ccccc12)C(=O)N[C@@H](CCCNC(=N)N)C(=O)N[C@@H](CC(C)C)C(=O)N[C@@H](CC(C)C)C(=O)N[C@@H](CCN=[N+]=[N-])C(=O)N[C@@H](CCC(=O)O)C(=O)N[C@@H](CC(N)=O)C(N)=O [SP0] |
| 36 |  | CC(=O)N[C@@H](CCC(=O)O)C(=O)N[C@H](C(=O)N[C@@H](Cc1ccccc1)C(=O)N[C@@]1(C)CCCC=CCCC[C@@H](OC(=O)[C@H](CCCCN)NC(=O)[C@@H](N)CCCCN)c2cn(nn2)CC[C@@H](C(=O)N[C@@H](CCC(=O)O)C(=O)N[C@@H](CC(N)=O)C(N)=O)NC(=O)[C@H](CC(C)C)NC(=O)[C@H](CC(C)C)NC(=O)[C@H](CCCNC(=N)N)NC(=O)[C@H](Cc2c[nH]c3ccccc23)NC(=O)[C@H](CC(C)C)NC(=O)[C@H](CC(=O)O)NC1=O)[C@@H](C)O [SP2‐K (B)] |
| 65 |  | CC(=O)N[C@@H](CCC(=O)O)C(=O)N[C@H](C(=O)N[C@@H](Cc1ccccc1)C(=O)N[C@@]1(C)CCCC=CCCC[C@@H](OC(=O)[C@H](CCCCN)NC(=O)[C@@H](N)CCCCN)c2cn(nn2)CC[C@@H](C(=O)N[C@@H](CCC(=O)O)C(=O)N[C@@H](CC(N)=O)C(N)=O)NC(=O)[C@H](CC(C)C)NC(=O)[C@H](CC(C)C)NC(=O)[C@H](CCCNC(=N)N)NC(=O)[C@H](Cc2c[nH]c3ccccc23)NC(=O)[C@H](CC(C)C)NC(=O)[C@H](CC(=O)O)NC1=O)[C@@H](C)O [SP2‐K (A)] |
| 55 |  | CC(=O)N[C@@H](CCC(=O)O)C(=O)N[C@H](C(=O)N[C@@H](Cc1ccccc1)C(=O)N[C@@]1(C)CCCC=CCCC[C@H](OC(=O)[C@H](CCCCN)NC(=O)[C@@H](N)CCCCN)c2cn(nn2)CC[C@@H](C(=O)N[C@@H](CCC(=O)O)C(=O)N[C@@H](CC(N)=O)C(N)=O)NC(=O)[C@H](CC(C)C)NC(=O)[C@H](CC(C)C)NC(=O)[C@H](CCCNC(=N)N)NC(=O)[C@H](Cc2c[nH]c3ccccc23)NC(=O)[C@H](CC(C)C)NC(=O)[C@H](CC(=O)O)NC1=O)[C@@H](C)O [SP1‐K (A)] |

— paper PMC5488175, “A New Methodology for Incorporating Chiral Linkers into Stapled Peptides” (Chembiochem, 2017)
